Data taken from PubChem BioAssay (NCI).
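Five concentrations, 48 hours, 96-well plates. Here, GI50 denotes the concentration required for 50% inhibition of growth. TGI denotes the concentration required for complete inhibition of growth.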

How the values were obtained:
Assay in all cases: NCI-60 cell line screen, 48 h
[1] = tested on: HL-60(TB) leukemia
[2] = tested on: IGROV1 ovarian
[3] = tested on: K-562 leukemia
[4] = tested on: KM12 colon
[5] = tested on: OVCAR-5 ovarian
[6] = tested on: RPMI-8226 leukemia
[7] = tested on: SF-539 CNS
[8] = tested on: T-47D breast

Structure (SMILES) | GI50 [1] | TGI [1] | GI50 [2] | TGI [2] | GI50 [3] | TGI [3] | GI50 [4] | TGI [4] | GI50 [5] | TGI [5] | GI50 [6] | TGI [6] | GI50 [7] | TGI [7] | GI50 [8] | TGI [8]
CCCc1cc2c(=O)c(C(=O)OC)c[nH]c2cc1N(CC)CC | 62.5 µM | > 100 µM | > 100 µM | > 100 µM | 80.5 µM | > 100 µM | 45.5 µM | > 100 µM | > 100 µM | > 100 µM | 63.2 µM | > 100 µM | 34 µM | > 100 µM | 53 µM | > 100 µM
CCOc1ccc(-c2nonc2NC(=O)c2cccc(C)c2)cc1OCC | > 100 µM | > 100 µM | 67 µM | > 100 µM | > 100 µM | > 100 µM | > 100 µM | > 100 µM | > 100 µM | > 100 µM | > 100 µM | > 100 µM | 35.5 µM | > 100 µM | > 100 µM | > 100 µM
COc1ccc(/C=C/C(=O)c2ccc(SC)cc2)cc1OC | 25.7 µM | 79.6 µM | 4.73 µM | 25.2 µM | 4.09 µM | 33.8 µM | 3.9 µM | 22.6 µM | 16.4 µM | 31.7 µM | 4.02 µM | 21.2 µM | 12 µM | 27.3 µM | 37.2 µM | > 100 µM
Nc1c(Br)cc(Br)c2c1[nH]c(=O)c1ccccc12 | > 100 µM | > 100 µM | 4.85 µM | 38.5 µM | 37.3 µM | > 100 µM | > 100 µM | > 100 µM | 25.7 µM | > 100 µM | 9.89 µM | > 100 µM | 42 µM | > 100 µM | 2.41 µM | 17.5 µM
CC[C@H](Nc1nc(NCc2cnc(C)cc2C)c2ncn(C(C)C)c2n1)[C@@H](C)O | 0.27 µM | 0.744 µM | 0.347 µM | > 100 µM | 0.48 µM | > 100 µM | 0.312 µM | 12.2 µM | 0.282 µM | > 100 µM | 0.308 µM | 14.2 µM | 0.24 µM | 0.781 µM | 0.402 µM | > 100 µM
CC(C)(C)c1nn(-c2ccccc2)c2c1C(=O)CSC(c1ccccc1Cl)N2 (configuration not stated) | 2.28 µM | 10.2 µM | 3.52 µM | 43 µM | 0.583 µM | 14.9 µM | 1.48 µM | 14.7 µM | 3.18 µM | 13.1 µM | 3.02 µM | 19.3 µM | 2.36 µM | 10.1 µM | 6.1 µM | 30 µM
COc1cc2cc(Oc3ccc(NC(=O)Nc4cccc(C(F)(F)F)c4)cc3)c(C)nc2cc1OC | 1.56 µM | 3.91 µM | 2.95 µM | 24.9 µM | 1.73 µM | 14 µM | 1.42 µM | 5.92 µM | 3.02 µM | 13 µM | 1.05 µM | 2.96 µM | 2.48 µM | 8.74 µM | 1.61 µM | 6.68 µM
O=c1c2ccccc2n(C[C@H]2CO2)c2ccccc12 | 1.28 µM | 3.29 µM | 1.53 µM | 5.6 µM | 2.2 µM | > 100 µM | 2.19 µM | 7.02 µM | 2.44 µM | 6.41 µM | 1.94 µM | 6.55 µM | 1.77 µM | 3.68 µM | 2.53 µM | 8.38 µM
Cc1ccc(-n2c3c(c4c(CN(C)C)c(O)ccc42)CCc2ccccc2C3=O)cc1 | 9.49 µM | 24.5 µM | 10.8 µM | 25.8 µM | 10.2 µM | 25.9 µM | 19.3 µM | 40 µM | 19.7 µM | 52.9 µM | 11 µM | 30.5 µM | 19.3 µM | 36 µM | > 100 µM | > 100 µM
O=c1ccn(C2OC(CO/N=C/c3ccc(O)c(O)c3O)C(O)C2O)c(=O)[nH]1 (configuration not stated) | 26.9 µM | 68.1 µM | 19.4 µM | 38.5 µM | 21.7 µM | 78.5 µM | 35.4 µM | > 100 µM | > 100 µM | > 100 µM | 49.5 µM | > 100 µM | 52.1 µM | > 100 µM | 21.8 µM | 50.3 µM
C/C(=N/Nc1nc2ccccc2n1C)c1ccccn1 | 0.0177 µM | 0.391 µM | 0.0327 µM | 12.5 µM | 0.0173 µM | > 100 µM | 0.202 µM | 20.7 µM | 0.243 µM | 39.7 µM | 0.0398 µM | 15.3 µM | 0.225 µM | 1.94 µM | < 0.0144 µM | 11.6 µM
COC1CC2CCC(C)C(O)(O2)C(=O)C(=O)N2CCCCC2C(=O)OC(C(C)CC2CCC(O)C(OC)C2)CC(=O)C(C)C=C(C)C(O)C(OC)C(=O)C(C)CC(C)/C=C/C=C/C=C1C (configuration not stated) | 10.2 µM | 23.6 µM | < 0.005 µM | 11.8 µM | 4.94 µM | 32.3 µM | 3.47 µM | 11.2 µM | 6.41 µM | 14.3 µM | 0.0903 µM | 19.3 µM | < 0.005 µM | 11 µM | < 0.005 µM | 20.9 µM
